Experimental data: US11845938B2, “Aptamer compositions and the use thereof” (City of Hope, priority 2016, dated 2023)
Entries after “also recorded” stand apart in the source; their conditions may differ.

B1: P1: RNA aptamer SEQ ID NO: 1, mHSP70 binding aptamer internalizing upon binding mHSP70 at the cell surface (nucleic acid)
chain: GGGAGACAAGAAUAAACGCUCAAUGCGCUGAAUGCCCAGCCGUGAAAGCGUCGAUUUCCAUCCUUCGACAGGAGGCUCACAACAGGC
modifications: listed as RNA, chemistry not fully specified

Columns and labels:
[1] = bypassing dCK deficiency, reference [5]; cited from earlier work
PANC-1 cells [2] = test: Flow cytometry-based binding assay, apparent dissociation constant (KD) of Cy3-labeled aptamers; details: flow cytometry MFI, one-site binding model, read-out: binding affinity (dissociation constant, KD)
Experimental: FIGS. 1A-1D. ApDCs of gemcitabine and 5-FU. (FIG. 1A) Chemical structure of gemcitabine and 5-FU prodrug (5F-dUTP). (FIG. 1B) The sequence of P19 incorporated with dFdCMP (dFdCTP) (SEQ ID NO: 18) and 5FdUMP (5FdUTP) (SEQ ID NO: 19) into P19, instead of 2′F-CTP and 2′F-UTP. (FIG. 1C) Intrinsic incorporation of active metabolites of gemcitabine (dFdCMP) and 5FdUMP in P19. M: Marker. 1:P19, 2: P19-dFdCMP, 3:P19-5FdUMP. (FIG. 1D) The dissociation constant (KD) was measured by flow cytometry using increasing concentrations of Cy3-labeled aptamers (from 15.6 to 1000 nM). Mean fluorescence intensity (MFI) was measured and calculated using a one-site binding model for non-linear regression.
FIGS. 4A-4C. […] Mean fluorescence intensity (MFI) was measured and calculated using a one-site binding model for non-linear regression. […] (FIG. 4B) The pancreatic cell lines PANC-1 and AsPC-1 were treated with 200 nM of the Cy3-labeled tP19 aptamer and analyzed by confocal microscopy. […]
Aptamer binding and uptake was also assessed by flow cytometry. […] Cells were washed with binding buffer and immediately analyzed by Fortessa flow cytometry (BD). […] The data were analyzed with FlowJo software.
To determine the apparent dissociation constant (KD) of aptamers to PANC-1 cells, the mean fluorescence intensity (MFI) was calculated for each concentration and for the unselected library controls. […]

PANC-1 cells [3] = test: Live-cell confocal imaging, aptamer internalization; type: cell-based; details: Cy3-labeled RNAs at 200 nM, 2 hour, confocal microscopy
Experimental: FIGS. 2A-2D. Cell proliferation assay of dFdC-P19-ApDC and 5FdU-P19-ApDC. (FIGS. 2A-2B) The pancreatic cell lines PANC-1 were treated with 200 nM of the Cy3-labeled dFdCMP-P19-ApDC (FIG. 2A) or 5FdUMP-P19-ApDC (FIG. 2B) and analyzed by confocal microscopy. […] Dyes: Cy3 labeled RNAs, Hoechst 33342. Scale bar: […]. (FIG. 2C) After treatment dFdCMP-P19-ApDC or 5FdUMP-P19-ApDC in PANC-1 cells for 72 hrs, cell viability was measured by MTT assay. One-way ANOVA test: ****≤0.0001, ***≤0.001. (FIG. 2D) After treatment dFdCMP-P19-ApDC or 5FdUMP-P19-ApDC in chemo-resistance AsPC-1 cells for 72 hrs, cell viability was measured by MTT assay. One-way ANOVA test: ****≤0.0001, ***≤0.001
(§1) FIGS. 4A-4C. Binding affinity and cell internalization of truncated P19 (tP19). (FIG. 4A) The dissociation constant (KD) was measured by flow cytometry using increasing concentrations of Cy3-labeled aptamers (from 15.6 to 500 nM). Mean fluorescence intensity (MFI) was measured and calculated using a one-site binding model for non-linear regression. […] (FIG. 4B) The pancreatic cell lines PANC-1 and AsPC-1 were treated with 200 nM of the Cy3-labeled tP19 aptamer and analyzed by confocal microscopy. […] (FIG. 4C) Non pancreatic lines including Huh7, HepG2, MCF7 and PC3 cells were also treated with 200 nM of Cy3-labeled tP19 and P1 aptamers. […] Dye Hoechst 33342. Scale bar: 10 μm.
FIGS. 5A-5D. […]

AsPC-1 cells = test: as above; type: cell-based; details: 200 nM Cy3-labeled aptamer, confocal microscopy
Experimental: as §1
(§2) For the aptamer internalization studies, 1×10^5 cells were seeded in 35 mm glass-bottom dishes (MatTek, Ashland, Mass., USA) and grown in medium for 24 hrs. The RNAs were labeled with Cy3 using the Cy3 Silencer siRNA labeling kit (Ambion, Tex., USA.). Cy3-labeled RNAs were added to the cells at 200 nM or 500 nM and incubated for 2 hour. The images were taken using a Zeiss LSM 510 Meta Inverted 2 photon confocal microscope system using a C-Apo 40x/1.2NA water immersion objective.

[4] = tested on: Huh7, HepG2, MCF7 and PC3 cells; test: Live-cell confocal imaging, aptamer internalization in non pancreatic lines; type: cell-based; details: 200 nM Cy3-labeled aptamer
Experimental: as §1, §2

Molecule	effectiveness relative to dFdC [1] [fold]	Kd (PANC-1 cells [2]) [nM]	internalization into PANC-1 cells (PANC-1 cells [3])	internalization into AsPC-1 cells (AsPC-1 cells)	internalization (Cy3 signal) in non-pancreatic cancer cell lines [4]
gemcitabine monophosphate [dFdCMP]	4	–	–	–	–
tP19: truncated form of aptamer P19, SEQ ID NO: 3, 28 bps in length, mHSP70 binding aptamer (CUCAAUGGCGAAUGCCCGCCUAAUAGGG; listed as RNA, chemistry not fully specified)	–	8.57	internalized into PANC-1 and AsPC-1 cells	internalized into PANC-1 and AsPC-1 cells	No Cy3 signal was observed; also recorded: not in non-pancreatic cancer cell lines
B1	–	–	–	–	No Cy3 signal was observed
